Laboratory results from patent publication US7348427B2, “Antipathogenic benzamide compounds” (Genesoft Pharmaceuticals, Inc., priority 2001, dated 2008).

Key:
[1] = test system: Bacillus cereus (ATCC 11778); experiment: MIC, NCCLS broth microdilution assay; assay type: cell-based; details: A = B. cereus ATCC 11778
Method in brief: (§1)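 Activity is measured as MIC in microtiter broth microdilution under NCCLS M7-A4, M11-A4 and M27-T guidance, with the yeast tested by the method in Murray's Manual of Clinical Microbiology.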

[2] = test system: Staphylococcus epidermidis (ATCC 12228); experiment: MIC, NCCLS broth microdilution assay; assay type: cell-based; details: G = S. epidermidis ATCC 12228
Method in brief: as §1

[3] = test system: Enterococcus faecium (ATCC 51559, a vancomycin resistant strain (VRE)); experiment: MIC, NCCLS broth microdilution assay; assay type: cell-based; details: D = E. faecium ATCC 51559
Method in brief: as §1

[4] = test system: Staphylococcus aureus (ATCC 13709, a methicillin sensitive strain (MSSA)); experiment: MIC, NCCLS broth microdilution assay; assay type: cell-based; details: E = S. aureus ATCC 13709
Method in brief: as §1

[5] = test system: Staphylococcus aureus (ATCC 27660, a methicillin resistant strain (MRSA)); experiment: MIC, NCCLS broth microdilution assay; assay type: cell-based; details: F = S. aureus ATCC 27660
Method in brief: as §1

[6] = test system: Streptococcus pneumoniae (ATCC 51422, a penicillin resistant strain (PRSP)); experiment: MIC, NCCLS broth microdilution assay; assay type: cell-based; details: I = S. pneumoniae ATCC 51422
Method in brief: as §1

S. pneumoniae ATCC 49619 = experiment: MIC, NCCLS broth microdilution assay; assay type: cell-based, Streptococcus pneumoniae; details: H = S. pneumoniae ATCC 49619
Method in brief: (§2)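 MICs were determined by NCCLS broth microdilution following documents M7-A4 and M11-A4 (1997).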

E. faecalis ATCC 29212 = experiment: MIC, NCCLS broth microdilution assay; assay type: cell-based, Enterococcus faecalis; details: C = E. faecalis ATCC 29212
Method in brief: as §2

[7] = test system: methicillin resistant Staphylococcus aureus ATCC 33591; experiment: Murine neutropenic thigh model; assay type: in vivo; details: neutropenic female CF1 mice, 6 hr after treatment
Description: A S. aureus ATCC 33591 culture was grown to log phase overnight and diluted in phosphate buffered saline (pH 7.2) to an optical density of about 0.1 at 600 nm, giving an approximate concentration of 10^8 cfu/mL. The suspension was diluted 1:100 in phosphate buffered saline (pH 7.2) for a final concentration of 10^6 cfu/mL.
Outbred female CF1 mice (approx. 20 gram body weight) were rendered neutropenic by treatment with cyclophosphamide (200 mg/kg body weight, intraperitoneal injection) at 2 and 4 days prior to inoculation. Groups of 5 mice were inoculated with 0.05 mL of the bacteria (approx. 10^6 cfu/mL) into the anterior thigh. Each group was treated intravenously two hours post infection with vehicle (phosphate buffered saline) or test compound. The mice were sacrificed at either 6 or 24 hrs after treatment and thighs were collected aseptically. Each thigh was weighed, placed into sterile saline, and homogenized. The tissue homogenates were diluted appropriately for plating on agar plates. Colony counts were recorded (cfu/gram) and compared to control groups.
In vivo efficacy was shown by a decrease in colony count (log cfu/gram of tissue) in the compound-treated animals when compared against the colony count in animals given only the vehicle.

[8] = test system: Candida albicans (ATCC 38247); experiment: Antifungal MIC assay; assay type: cell-based; details: B = C. albicans ATCC 38247
Method in brief: as §1

[9] = 50 mg/kg intravenously two hours post infection
[10] = 25 mg/kg intravenously two hours post infection
[11] = Staphylococcus aureus, read-out: Minimum Inhibitory Concentration (MIC)

Structure (SMILES)	Minimum Inhibitory Concentration (MIC) [1]	Minimum Inhibitory Concentration (MIC) [2]	Minimum Inhibitory Concentration (MIC) [3]	Minimum Inhibitory Concentration (MIC) [4]	Minimum Inhibitory Concentration (MIC) [5]	Minimum Inhibitory Concentration (MIC) [6]	Minimum Inhibitory Concentration (MIC) (S. pneumoniae ATCC 49619)	Minimum Inhibitory Concentration (MIC) (E. faecalis ATCC 29212)	Colony Count (log cfu/gram) Compound [7, 9] [log cfu/gram]	Minimum Inhibitory Concentration (MIC) [8]	Colony Count (log cfu/gram) Compound [7, 10] [log cfu/gram]	MIC ([1]; Bacillus cereus, ATCC11778, read-out: Minimum Inhibitory Concentration (MIC)) [µg/mL]	MIC ([2]; Staphylococcus epidermidis, ATCC12228, read-out: Minimum Inhibitory Concentration (MIC)) [µg/mL]	MIC ([3]; Enterococcus faecium, read-out: Minimum Inhibitory Concentration (MIC)) [µg/mL]	MIC [4, 11] [µg/mL]	MIC [5, 11] [µg/mL]	MIC ([6]; Streptococcus pneumoniae, read-out: Minimum Inhibitory Concentration (MIC)) [µg/mL]	MIC (S. pneumoniae ATCC 49619; Streptococcus pneumoniae, ATCC49619, read-out: Minimum Inhibitory Concentration (MIC)) [µg/mL]	MIC (E. faecalis ATCC 29212; Enterococcus faecalis, ATCC29212, read-out: Minimum Inhibitory Concentration (MIC)) [µg/mL]	MIC ([8]; Candida albicans, ATCC38247, read-out: Minimum Inhibitory Concentration (MIC)) [µg/mL]
Cn1cc(NC(=O)c2cc(NC(=O)c3cc(NC(=O)c4ccc(F)cc4F)cn3C)cn2C)cc1C(=O)NCCN1CCCCC1 [Compound B-6]	+++ (+++ = MIC ≦ 4)	+++ (+++ = MIC ≦ 4)	+++ (+++ = MIC ≦ 4)	+++ (+++ = MIC ≦ 4)	+++ (+++ = MIC ≦ 4)	+++ (+++ = MIC ≦ 4)	+++ (+++ = MIC ≦ 4)	+++ (+++ = MIC ≦ 4)	6.37	>32 µg/mL										
Cn1cc(NC(=O)c2cc(NC(=O)c3cc(NC(=O)c4ccc(Cl)cc4F)cn3C)cn2C)cc1C(=O)NCCN1CCOCC1 [Compound B-47]	+++ (+++ = MIC ≦ 4)	+++ (+++ = MIC ≦ 4)	+++ (+++ = MIC ≦ 4)		+++ (+++ = MIC ≦ 4)	+++ (+++ = MIC ≦ 4)	+++ (+++ = MIC ≦ 4)	+++ (+++ = MIC ≦ 4)	7.53	>32 µg/mL										
Cn1cc(NC(=O)c2cc(NC(=O)c3cc(NC(=O)c4ccc(C#N)cc4)cn3C)cn2C)cc1C(=O)NCCN1CCOCC1 [Compound B-67]	+++ (+++ = MIC ≦ 4)						+++ (+++ = MIC ≦ 4)	+++ (+++ = MIC ≦ 4)	7.73	>32 µg/mL										
Cn1cc(NC(=O)c2cc(NC(=O)c3cc(NC(=O)c4ccc(F)cc4F)c[nH]3)cn2C)cc1C(=O)NCCN1CCCCC1 [Compound A-4]	+++ (+++ = MIC ≦ 4)	+++ (+++ = MIC ≦ 4)	+++ (+++ = MIC ≦ 4)	+++ (+++ = MIC ≦ 4)	+++ (+++ = MIC ≦ 4)	+++ (+++ = MIC ≦ 4)	+++ (+++ = MIC ≦ 4)	+ (+ = 12 ≦ MIC ≦ 32)	4.99	++ (++ = 4 < MIC < 12)	5.75									
CN(C)CCCNC(=O)c1cc(NC(=O)c2cc(NC(=O)c3cc(NC(=O)c4ccc(Cl)cc4F)cn3C)cn2C)cn1C [Compound B-50]	+++ (+++ = MIC ≦ 4)			+++ (+++ = MIC ≦ 4)	+++ (+++ = MIC ≦ 4)		+++ (+++ = MIC ≦ 4)	+++ (+++ = MIC ≦ 4)	6.58	+++ (+++ = MIC ≦ 4)										
Cn1cc(NC(=O)c2cc(NC(=O)c3cc(NC(=O)c4ccc(Cl)cc4F)c[nH]3)cn2C)cc1C(=O)NCCN1CCC(F)CC1 [Compound A-26]	+++ (+++ = MIC ≦ 4)			+++ (+++ = MIC ≦ 4)	+++ (+++ = MIC ≦ 4)		+++ (+++ = MIC ≦ 4)	+++ (+++ = MIC ≦ 4)	5.34	++ (++ = 4 < MIC < 12)	6.37									
Cn1cc(NC(=O)c2cc(NC(=O)c3cc(NC(=O)c4ccc(Cl)cc4)cn3C)cn2C)cc1C(=O)NCCN1CCOCC1 [Compound B-56]	+++ (+++ = MIC ≦ 4)			+++ (+++ = MIC ≦ 4)	+++ (+++ = MIC ≦ 4)		+++ (+++ = MIC ≦ 4)	+++ (+++ = MIC ≦ 4)	6.38	>32 µg/mL										
Cn1cc(NC(=O)c2ccc(F)cc2F)cc1C(=O)Nc1cc(C(=O)Nc2cc(C(=O)N3CCC(O)CC3)n(C)c2)n(C)c1 [Compound B-26]	>32 µg/mL	>32 µg/mL	>32 µg/mL	>32 µg/mL	>32 µg/mL	>32 µg/mL	>32 µg/mL	>32 µg/mL		>32 µg/mL										
Cn1cc(NC(=O)c2cc(NC(=O)c3cc(NC(=O)c4ccc(Cl)cc4F)c[nH]3)cn2C)cc1C(=O)NCC[N+]1(C)CCOCC1 [Compound A-28]												≤ 4	≤ 4	12 to 32	≤ 4	≤ 4	≤ 4	≤ 4	4 to 12	≤ 4
Cn1cc(NC(=O)c2cc(NC(=O)c3ccc(Cl)cc3F)c[nH]2)cc1C(=O)Nc1cc(C(=O)NCCN2CCCCC2)n(CCN2CCOCC2)c1 [Compound D-13]	+++ (+++ = MIC ≦ 4)	+++ (+++ = MIC ≦ 4)	++ (++ = 4 < MIC < 12)	+++ (+++ = MIC ≦ 4)	+++ (+++ = MIC ≦ 4)	+++ (+++ = MIC ≦ 4)	+++ (+++ = MIC ≦ 4)	+++ (+++ = MIC ≦ 4)		+ (+ = 12 ≦ MIC ≦ 32)										
Cn1cc(NC(=O)c2cc(NC(=O)c3cc(NC(=O)c4ccc(Cl)cc4NCCN4CCCCC4)cn3C)cn2C)cc1C(=O)NCCN1CCCCC1 [Compound B-64]	+++ (+++ = MIC ≦ 4)	+++ (+++ = MIC ≦ 4)	+++ (+++ = MIC ≦ 4)	+++ (+++ = MIC ≦ 4)	+++ (+++ = MIC ≦ 4)	+++ (+++ = MIC ≦ 4)	+++ (+++ = MIC ≦ 4)	+++ (+++ = MIC ≦ 4)		+++ (+++ = MIC ≦ 4)										
Cn1cc(NC(=O)c2cc(NC(=O)c3ccc(Cl)cc3F)cn2C)cc1C(=O)NCCN1CCOCC1 [Compound B-48]	+++ (+++ = MIC ≦ 4)	+++ (+++ = MIC ≦ 4)	+++ (+++ = MIC ≦ 4)	+++ (+++ = MIC ≦ 4)	++ (++ = 4 < MIC < 12)	+++ (+++ = MIC ≦ 4)	+++ (+++ = MIC ≦ 4)	+++ (+++ = MIC ≦ 4)		>32 µg/mL										
